These results are taken from the RepoRT retention time repository.

Each structure is given as a SMILES string. Counter-ions that a name gives are not always drawn.

The data set can be described thus: RP, Waters ACQUITY Premier BEH C18, 100 × 2.1 mm, 1.7 µm, 40 °C, 0.3 to 0.4 mL/min, estimated dead time 0.73 min; A: water + 0.1% formic acid; B: acetonitrile + 0.1% formic acid; gradient (min/%B) 0/0.5 0.1/0.5 10/80 10.1/99.5 12/0.5 12.1/0.5 14.5/0.5. The settings on record: stereoisomer not certain.
For `O=C(O)CCC(=O)O` [SUCCINATE], the LC retention time was 1.76 min.

With `CCCCCCCCCCCCC(O)C(=O)O` (configuration not stated) [2-HYDROXYMYRISTIC ACID], the LC retention time was 8.3 min.

Take `Cc1ccc(OS(=O)(=O)O)cc1` [P-CRESOL SULFATE]: the LC retention time is 4.57 min.

Regarding `CC(CCC(=O)O)C1CCC2C3C(O)C(O)C4CC(O)CCC4(C)C3CCC12C` (configuration not stated) [HYOCHOLIC ACID], the LC retention time is 6.98 min.

As for `O=C(O)/C=C/c1ccccc1` [TRANS-CINNAMATE], the LC retention time is 6.45 min.

For the compound `O=C(O)c1ccccc1C(=O)O` [PHTHALIC ACID], the LC retention time is 4.52 min.

For `O=c1ccn(C2OC(COP(=O)(O)O)C(O)C2O)c(=O)[nH]1` (configuration not stated) [URIDINE MONOPHOSPHATE], the LC retention time is 1.26 min.

As to `CCCCCCCCCCCCCCCC(O)C(N)CO` (configuration not stated) [SPHINGANINE], the LC retention time was 7.51 min.

As to `Cc1cnc(=O)[nH]c1N` [5-METHYLCYTOSINE], the LC retention time was 0.94 min.

With `O=C(O)CCCCC(=O)O` [ADIPATE], the LC retention time was 3.99 min.

With `O=C(O)CCCCCCCC(=O)O` [AZELATE], the LC retention time is 5.52 min.

Take `CC(CCC(=O)NCC(=O)O)C1CCC2C3C(O)CC4CC(O)CCC4(C)C3CC(O)C12C` (configuration not stated) [GLYCOCHOLATE]: the LC retention time was 6.68 min.

Turning to `Nc1cc(C(=O)O)ccc1O` [3-AMINO-4-HYDROXYBENZOATE], the LC retention time was 1.37 min.

Regarding `Cc1ncc(CO)c(CO)c1O` [PYRIDOXINE], the LC retention time was 2.1 min.

`O=C(O)CC(CC(=O)O)C(=O)O` [1,2,3-PROPANETRICARBOXYLIC ACID]: the LC retention time is 2.39 min.

As to `CCOC(=O)Cc1c[nH]c2ccccc12` [ETHYL 3-INDOLEACETATE], the LC retention time is 7.2 min.

With `NC(=O)CCCCC1CCSS1` (configuration not stated) [LIPOAMIDE], the LC retention time is 5.5 min.

For the compound `O=C1c2c(O)cccc2C(C2OC(CO)C(O)C(O)C2O)c2cc(CO)cc(O)c21` (configuration not stated) [ALOIN], the LC retention time is 5.1 min.

With `CC(CC(=O)O)CC(=O)O` [METHYGLUTARATE], the LC retention time was 4.05 min.

`CC1OC(OC2C(O)C(OCCc3ccc(O)c(O)c3)OC(CO)C2OC(=O)C=Cc2ccc(O)c(O)c2)C(O)C(O)C1O` (configuration not stated) [ACTEOSIDE]: the LC retention time was 4.38 min.

Take `NC(=O)c1ncn(C2OC(CO)C(O)C2O)c1N` (configuration not stated) [AICA-RIBOSIDE]: the LC retention time is 0.945 min.

`OCC1OC(OCC2OC(OC3(CO)OC(CO)C(O)C3O)C(O)C(O)C2O)C(O)C(O)C1O` (configuration not stated) [RAFFINOSE]: the LC retention time is 0.962 min.

Regarding `Nc1ncnc2c1ncn2C1OC(CO)C2OP(=O)(O)OC21` (configuration not stated) [ADENOSINE 2',3'-CYCLIC PHOSPHATE], the LC retention time was 2.8 min.

Regarding `Nc1ncnc2c1ncn2C1OC(COP(=O)(O)OS(=O)(=O)O)C(O)C1O` (configuration not stated) [ADENOSINE PHOSPHOSULFATE], the LC retention time was 1.22 min.

For `O=c1cc(-c2ccc(O)c(O)c2)oc2cc(OC3OC(CO)C(O)C(O)C3O)cc(O)c12` (configuration not stated) [LUTEOLIN-7-GLUCOSIDE], the LC retention time was 4.44 min.

Regarding `CCCCCCCCCCCCCC(O)CC(=O)O` (configuration not stated) [3-HYDROXYHEXADECANOIC ACID], the LC retention time was 8.7 min.

Take `Nc1ncnc2c1ncn2C1OC(CO)C(O)C1O` (configuration not stated) [ADENOSINE]: the LC retention time is 3.28 min.

Take `CCCCCCCCCCCC(O)CC(=O)O` (configuration not stated) [3-HYDROXYTETRADECANOIC ACID]: the LC retention time is 8.11 min.

`Cc1cc2nc3c(=O)[nH]c(=O)nc-3n(CC(O)C(O)C(O)COP(=O)(O)O)c2cc1C` (configuration not stated) [FLAVIN MONONUCLEOTIDE]: the LC retention time is 3.73 min.

Turning to `O=C(O)CC1C(=O)Nc2ccccc21` (configuration not stated) [3-OXINDOLE-3-ACETATE], the LC retention time was 4.29 min.

As for `O=C(O)c1ccc(O)cc1` [4-HYDROXYBENZOATE], the LC retention time is 4.37 min.

Consider `CNC(=O)c1cccnc1` [N-METHYLNICOTINAMIDE], for which the LC retention time was 1.05 min.

As for `Cc1cc2nc3c(=O)[nH]c(=O)nc-3n(CC(O)C(O)C(O)COP(=O)(O)OP(=O)(O)OCC3OC(n4cnc5c(N)ncnc54)C(O)C3O)c2cc1C` (configuration not stated) [FAD], the LC retention time was 4.15 min.

Turning to `CC(CCC(=O)NCCS(=O)(=O)O)C1CCC2C3C(O)CC4CC(O)CCC4(C)C3CC(O)C12C` (configuration not stated) [TAUROCHOLIC ACID], the LC retention time was 5.85 min.

On to `CC1OC(Oc2c(-c3ccc(O)c(O)c3)oc3cc(O)cc(O)c3c2=O)C(O)C(O)C1O` (configuration not stated) [QUERCITRIN], for which the LC retention time is 4.68 min.

With `O=C(O)CNC(=O)C=Cc1ccccc1` [CINNAMOYLGLYCINE], the LC retention time is 5.02 min.

`CC12CCC(=O)C=C1CCC1C2C(=O)CC2(C)C1CCC2(O)C(=O)CO` (configuration not stated) [CORTISONE]: the LC retention time was 6.12 min.

With `CC(O)(CCO)CC(=O)O` (configuration not stated) [MEVALONATE], the LC retention time was 2.75 min.

Regarding `Nc1ncnc2c1ncn2C1OC2COP(=O)(O)OC2C1O` (configuration not stated) [CYCLIC AMP], the LC retention time is 3.35 min.

As to `C=C1CC2(O)OC3(CC2C(C)C)C(C)CCC13` (configuration not stated) [CURCUMOL], the LC retention time is 7.93 min.

On to `NCC(O)c1ccc(O)c(O)c1` (configuration not stated) [NORADRENALINE], for which the LC retention time is 0.887 min.

In the case of `O=c1c(O)c(-c2ccc(O)cc2O)oc2cc(O)cc(O)c12` [MORIN], the LC retention time was 5.82 min.

As to `O=C(O)CCc1c[nH]c2ccccc12` [INDOLE-3-PROPIONIC ACID], the LC retention time was 6.22 min.

Take `CC(=O)OC1CC(=O)OC(C)(C)C2CC(=O)C3(C)C(CCC4(C)C(c5ccoc5)OC(=O)C5OC543)C12C` (configuration not stated) [NOMILIN]: the LC retention time is 7.05 min.

Turning to `O=C(O)C(=O)Cc1ccccc1` [PHENYLPYRUVATE], the LC retention time is 5.38 min.

`COc1ccccc1C=CC=O` [CASSIASTEAROPTENE]: the LC retention time was 7.94 min.

Regarding `O=S(=O)(O)Oc1ccccc1` [PHENOL SULFATE], the LC retention time is 1.17 min.

In the case of `O=C(O)CCCCCCCCCCCO` [OMEGA-HYDROXYDODECANOATE], the LC retention time is 6.99 min.

For the compound `Cc1cn(C2CC(O)C(COP(=O)(O)O)O2)c(=O)[nH]c1=O` (configuration not stated) [THYMIDINE-MONOPHOSPHATE], the LC retention time was 2.73 min.

Consider `CC(C)(COP(=O)(O)OP(=O)(O)OCC1OC(n2cnc3c(N)ncnc32)C(O)C1O)C(O)C(=O)NCCC(=O)NCCS` (configuration not stated) [DEPHOSPHO-COA], for which the LC retention time is 3.69 min.

Turning to `Cc1cc2nc[nH]c2cc1C` [5,6 DIMETHYLBENZIMIDAZOLE], the LC retention time is 4.48 min.

With `O=c1[nH]c(=O)c2[nH]cnc2[nH]1` [XANTHINE], the LC retention time is 2.11 min.

`Oc1ccc(C2COc3cc(O)ccc3C2)cc1` (configuration not stated) [EQUOL]: the LC retention time was 6.57 min.

Consider `CC(O)CCCC(=O)O` (configuration not stated) [5-HYDROXYHEXANOIC ACID], for which the LC retention time is 3.96 min.

`Cn1c(=O)c2c([nH]c(=O)n2C)n(C)c1=O` [1,3,7-TRIMETHYLURIC ACID]: the LC retention time was 3.23 min.

On to `c1ncc2[nH]cnc2n1` [PURINE], for which the LC retention time is 2.2 min.

Consider `COc1ccc2[nH]cc(CCNC(C)=O)c2c1` [MELATONIN], for which the LC retention time was 5.57 min.

For `COc1ccc(-c2oc3cc(OC)c(OC)c(O)c3c(=O)c2OC)cc1O` [CASTICIN], the LC retention time was 6.98 min.

Regarding `O=c1ccn(C2CC(O)C(CO)O2)c(=O)[nH]1` (configuration not stated) [DEOXYURIDINE], the LC retention time is 3.27 min.

For the compound `C[N+](C)(C)CCCC(=O)[O-]` [DEOXYCARNITINE], the LC retention time was 0.901 min.

Regarding `O=C(O)C(O)CO` (configuration not stated) [GLYCERATE], the LC retention time was 0.911 min.

Regarding `CC(C=CC1=C(C)CCCC1(C)C)=CC=CC(C)=CC(=O)O` [RETINOATE], the LC retention time is 9.05 min.

With `COc1ccc(-c2cc(=O)c3c(OC)c(OC)c(OC)c(OC)c3o2)cc1` [TANGERETIN], the LC retention time is 7.26 min.

Turning to `O=C(O)C1CCCCN1` (configuration not stated) [PIPECOLATE], the LC retention time is 1.33 min.

Consider `CC(=O)N1CCCC1C(=O)O` (configuration not stated) [N-ACETYLPROLINE], for which the LC retention time is 3.77 min.

Regarding `O=c1[nH]cnc2c1ncn2C1OC(CO)C(O)C1O` (configuration not stated) [INOSINE], the LC retention time was 3.37 min.

`Cc1cc2nc3[nH]c(=O)[nH]c(=O)c3nc2cc1C` [LUMICHROME]: the LC retention time was 5.49 min.

Regarding `COc1ccc(-c2cc(=O)c3c(O)cc(O)cc3o2)cc1O` [DIOSMETIN], the LC retention time is 6.12 min.

With `O=C(O)CCCCC1SCC2NC(=O)NC21` (configuration not stated) [BIOTIN], the LC retention time was 4.59 min.

With `O=C1CC(C(=O)O)NC(=O)N1` (configuration not stated) [4,5-DIHYDROOROTIC ACID], the LC retention time was 1.12 min.

With `Nc1c(O)cccc1C(=O)CC(N)C(=O)O` (configuration not stated) [HYDROXYKYNURENINE], the LC retention time is 2.07 min.

`O=C(O)CCCC(=O)O` [GLUTARATE]: the LC retention time is 3.5 min.

For the compound `Oc1ccc(C=Cc2cc(O)cc(O)c2)cc1` [RESVERATROL], the LC retention time is 5.3 min.

Turning to `COc1cc(C=CC(=O)CC(=O)C=Cc2ccc(O)c(OC)c2)ccc1O` [CURCUMIN], the LC retention time was 7.18 min.

For `O=c1ccc2ccc(O)cc2o1` [UMBELLIFERONE], the LC retention time is 4.61 min.

For `O=C(O)CNC(=O)c1ccccc1` [HIPPURATE], the LC retention time was 4.57 min.

Turning to `CC(O)CCCCCC(=O)O` (configuration not stated) [7-HYDROXYOCTANOIC ACID], the LC retention time was 4.96 min.

On to `CC(C)C(=O)OC(CC(=O)[O-])C[N+](C)(C)C` [ISOBUTYRYL-L-CARNITINE], for which the LC retention time was 3.82 min.

In the case of `CC1OC(OC2C(Oc3cc(O)c4c(c3)OC(c3ccc(O)cc3)CC4=O)OC(CO)C(O)C2O)C(O)C(O)C1O` (configuration not stated) [NARINGIN], the LC retention time is 4.7 min.

For `COc1cc(CCN)ccc1O` [3-METHOXYTYRAMINE], the LC retention time was 3.47 min.

Consider `CSCCC(N)C(=O)O` (configuration not stated) [ISTD_METHIONINE-METHYL-D3], for which the LC retention time was 1.46 min.

`CC(CCC(=O)O)C1CCC2C3C(O)CC4CC(O)CCC4(C)C3CC(O)C12C` (configuration not stated) [CHOLATE]: the LC retention time is 7.13 min.
